Reference: PubChem BioAssay AID1963985 (Molecular Pharmacology Branch, DTP, NCI, 2024)

Test system: 252836-082-R-J2-PDC tumor spheroids, viability
Test: Anticancer human tumor 252836-082-R-J2-PDC patient-derived head and neck squamous cell carcinoma cell line growth inhibition [PI3K]
Details: spheroids with HUVEC and MSC; for IC50: curve of first compound; for viability, T/C: stronger effect = lower value
In short: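 Viability of mixed-cell spheroids was determined after exposure to pairwise combinations, one partner being inavolisib, alpelisib, duvelisib or copanlisib. Highest tested concentration matched clinical Cmax where known and 10 microM where not, descending in half-log steps.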
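Further: spheroids exposed to agents for seven days before readout.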
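Wherever viability, T/C is given: percent of vehicle DMSO control viability so 100% = untreated growth.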

`CC(=O)c1c(C)c2cnc(Nc3ccc(N4CCNCC4)cn3)nc2n(C2CCCC2)c1=O` + Cc1nc(NC(=O)N2CCCC2C(N)=O)sc1-c1ccnc(C(C)(C)C(F)(F)F)c1 was tested, and the IC50 (second compound 0.0316 µM) was greater than 100 nM, the IC50 (second compound 0.1 µM) was greater than 100 nM and the IC50 (second compound 0.316 µM) was greater than 100 nM. It also gave an IC50 (second compound 1 µM) greater than 100 nM, an IC50 (second compound 3.16 µM) of less than 0.316 nM and an IC50 (second compound 10 µM) of less than 0.316 nM. For the same compound, the viability, T/C (second compound 0.0316 µM, first compound 0.000316 µM) was 95.6%, the viability, T/C (second compound 0.0316 µM, first compound 0.001 µM) was 83.4% and the viability, T/C (second compound 0.0316 µM, first compound 0.00316 µM) was 91.6%. For the same compound, the viability, T/C (second compound 0.0316 µM, first compound 0.01 µM) was 79.5%, the viability, T/C (second compound 0.0316 µM, first compound 0.0316 µM) was 91.8% and the viability, T/C (second compound 0.0316 µM, first compound 0.1 µM) was 77.7%. It also gave a viability, T/C (second compound 0.1 µM, first compound 0.000316 µM) of 71.9%, a viability, T/C (second compound 0.1 µM, first compound 0.001 µM) of 83.8% and a viability, T/C (second compound 0.1 µM, first compound 0.00316 µM) of 85.7%. For the same compound, the viability, T/C (second compound 0.1 µM, first compound 0.01 µM) was 76.2%, the viability, T/C (second compound 0.1 µM, first compound 0.0316 µM) was 78.9% and the viability, T/C (second compound 0.1 µM, first compound 0.1 µM) was 73.7%. The viability, T/C (second compound 0.316 µM, first compound 0.000316 µM) was 71.7%, the viability, T/C (second compound 0.316 µM, first compound 0.001 µM) was 74.2% and the viability, T/C (second compound 0.316 µM, first compound 0.00316 µM) was 80.5%. For the same compound, the viability, T/C (second compound 0.316 µM, first compound 0.01 µM) was 65.2%, the viability, T/C (second compound 0.316 µM, first compound 0.0316 µM) was 66.7% and the viability, T/C (second compound 0.316 µM, first compound 0.1 µM) was 81.5%. The viability, T/C (second compound 1 µM, first compound 0.000316 µM) was 62.3%, the viability, T/C (second compound 1 µM, first compound 0.001 µM) was 56.3% and the viability, T/C (second compound 1 µM, first compound 0.00316 µM) was 52.7%. For the same compound, the viability, T/C (second compound 1 µM, first compound 0.01 µM) was 65.6%, the viability, T/C (second compound 1 µM, first compound 0.0316 µM) was 64.4% and the viability, T/C (second compound 1 µM, first compound 0.1 µM) was 57.2%. For the same compound, the viability, T/C (second compound 3.16 µM, first compound 0.000316 µM) was 46.1%, the viability, T/C (second compound 3.16 µM, first compound 0.001 µM) was 45.5% and the viability, T/C (second compound 3.16 µM, first compound 0.00316 µM) was 39.2%. For the same compound, the viability, T/C (second compound 3.16 µM, first compound 0.01 µM) was 43.9%, the viability, T/C (second compound 3.16 µM, first compound 0.0316 µM) was 48.1% and the viability, T/C (second compound 3.16 µM, first compound 0.1 µM) was 41.1%. For the same compound, the viability, T/C (second compound 10 µM, first compound 0.000316 µM) was 27.9%, the viability, T/C (second compound 10 µM, first compound 0.001 µM) was 30.6% and the viability, T/C (second compound 10 µM, first compound 0.00316 µM) was 25.9%. For the same compound, the viability, T/C (second compound 10 µM, first compound 0.01 µM) was 35.7%, the viability, T/C (second compound 10 µM, first compound 0.0316 µM) was 33.3% and the viability, T/C (second compound 10 µM, first compound 0.1 µM) was 38.2%.
